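Results reflect a 48-hour exposure of cells in 96-well plates to compound at five concentrations. Here, GI50 denotes the concentration required for 50% inhibition of growth.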 The source made the active and inactive calls. Cut-off read from the data, not from the text of the source: active = GI50 up to about 1.1 µM and inactive = higher.
How the values were obtained:
Experiment in all cases: inhibition of tumour cell growth, NCI panel, 48 h
CCRF-CEM = system: CCRF-CEM
HCC 2998 = system: HCC 2998
HL-60 = system: HL-60
HOP-92 = system: HOP-92
HT-29 = system: HT-29
IGROV-1 = system: IGROV-1
MDA-MB-231 = system: MDA-MB-231
MOLT-4 = system: MOLT-4
NCI-H226 = system: NCI-H226
PC-3 = system: PC-3
RXF 393 = system: RXF 393
SF-295 = system: SF-295
SK-MEL-5 = system: SK-MEL-5
SK-OV-3 = system: SK-OV-3
SN12C = system: SN12C
SR = system: SR
U-251 = system: U-251
UACC-257 = system: UACC-257
UO-31 = system: UO-31
RPMI-8226 = system: RPMI-8226

Measured: GI50

O=S(=O)(O)c1cc(/N=N/c2cc(S(=O)(=O)O)c3ccccc3c2O)ccc1/C=C/c1ccc(/N=N/c2cc(S(=O)(=O)O)c3ccccc3c2O)cc1S(=O)(=O)O
inactive: CCRF-CEM 20.6 µM | HCC 2998 > 100 µM | HL-60 18.2 µM | HOP-92 > 80.9 µM | HT-29 > 457 µM | IGROV-1 > 399 µM | MDA-MB-231 27.3 µM | MOLT-4 22.8 µM | NCI-H226 270 µM | PC-3 150 µM | RXF 393 > 771 µM | SF-295 > 462 µM | SK-MEL-5 86.7 µM | SK-OV-3 > 630 µM | SN12C > 743 µM | SR 27 µM | U-251 > 716 µM | UACC-257 > 291 µM | UO-31 > 367 µM

O=C(CSC1=NC(=O)C2(NN1)c1ccccc1-c1ccccc12)NC(=S)Nc1ccccc1
inactive: CCRF-CEM > 10 µM | HCC 2998 > 10 µM | HL-60 > 10 µM | HOP-92 > 10 µM | HT-29 > 10 µM | IGROV-1 > 10 µM | MDA-MB-231 > 10 µM | MOLT-4 9.14 µM | NCI-H226 8.2 µM | PC-3 > 10 µM | RPMI-8226 9.04 µM | RXF 393 > 10 µM | SF-295 > 10 µM | SK-MEL-5 > 10 µM | SK-OV-3 > 10 µM | SN12C > 10 µM | SR 6.03 µM | UACC-257 > 10 µM | UO-31 4.7 µM

C[C@]12C(=O)OC[C@H](c3ccccc3)N1C(=O)N(Cc1ccccc1)[C@@H]2CO
inactive: CCRF-CEM > 100 µM | HCC 2998 > 100 µM | HL-60 > 100 µM | HOP-92 > 100 µM | HT-29 > 100 µM | IGROV-1 > 100 µM | MDA-MB-231 > 100 µM | MOLT-4 > 100 µM | NCI-H226 > 100 µM | PC-3 > 100 µM | RXF 393 > 100 µM | SF-295 > 100 µM | SK-MEL-5 > 100 µM | SK-OV-3 > 100 µM | SN12C > 100 µM | SR > 100 µM | UACC-257 > 100 µM | UO-31 > 100 µM

COC1(OC)CC(CO)(CNc2nc(N)nc(Cl)c2/C=N\O)C1
inactive: CCRF-CEM 47.1 µM | HCC 2998 > 100 µM | HL-60 39.3 µM | HOP-92 13.6 µM | HT-29 38.4 µM | IGROV-1 21.3 µM | MDA-MB-231 72.9 µM | MOLT-4 15.3 µM | NCI-H226 29.6 µM | PC-3 55.5 µM | RPMI-8226 13.6 µM | RXF 393 18.7 µM | SF-295 33.3 µM | SK-MEL-5 43.1 µM | SN12C 87.7 µM | SR 13.4 µM | U-251 43.7 µM | UACC-257 27.7 µM | UO-31 39.2 µM

COC(=O)/C=C(/C(=O)OC)c1c(C)cc2c(C)cc(C)cc(C)c1-2
inactive: CCRF-CEM 9.18 µM | HCC 2998 16.4 µM | HL-60 4.13 µM | HOP-92 31.6 µM | HT-29 7.41 µM | IGROV-1 23.3 µM | MDA-MB-231 4.89 µM | MOLT-4 5.46 µM | NCI-H226 21.1 µM | PC-3 19 µM | RPMI-8226 9.79 µM | RXF 393 18.8 µM | SF-295 7.24 µM | SK-MEL-5 8.15 µM | SK-OV-3 21.5 µM | SN12C 14.9 µM | SR 4.19 µM | U-251 8.26 µM | UACC-257 19.3 µM | UO-31 23 µM

CS(=O)(=O)c1ccc(C2=C(c3ccccc3)C(=O)OC2)cc1 [ROFECOXIB]
inactive: CCRF-CEM > 100 µM | HCC 2998 > 100 µM | HL-60 > 100 µM | HOP-92 > 100 µM | IGROV-1 > 100 µM | MDA-MB-231 > 100 µM | MOLT-4 > 100 µM | NCI-H226 > 100 µM | PC-3 > 100 µM | RPMI-8226 > 100 µM | RXF 393 > 100 µM | SF-295 > 100 µM | SK-MEL-5 > 100 µM | SK-OV-3 > 100 µM | SN12C > 100 µM | SR > 100 µM | U-251 > 100 µM | UACC-257 > 100 µM | UO-31 > 100 µM

N/C1=C/C(=O)NC(=O)c2c(c3ccccc3oc2=O)C1
inactive: CCRF-CEM > 100 µM | HCC 2998 > 100 µM | HL-60 > 100 µM | HOP-92 > 100 µM | HT-29 > 100 µM | IGROV-1 > 100 µM | MDA-MB-231 > 100 µM | MOLT-4 > 100 µM | NCI-H226 > 100 µM | PC-3 > 100 µM | RPMI-8226 62.8 µM | RXF 393 > 100 µM | SN12C > 100 µM | SR > 100 µM | U-251 > 100 µM | UACC-257 > 100 µM | UO-31 > 100 µM

CCOC(=O)C1C(=O)CC(C)(O)C(C(=O)OCC)C1c1ccc(N(C)C)cc1 (stereo unspecified)
inactive: CCRF-CEM > 100 µM | HCC 2998 > 100 µM | HL-60 > 100 µM | HOP-92 > 100 µM | HT-29 > 100 µM | IGROV-1 > 100 µM | MDA-MB-231 > 100 µM | MOLT-4 > 100 µM | NCI-H226 > 100 µM | PC-3 > 100 µM | RXF 393 > 100 µM | SF-295 > 100 µM | SK-MEL-5 > 100 µM | SN12C > 100 µM | SR > 100 µM | U-251 > 100 µM | UACC-257 > 100 µM | UO-31 > 100 µM

Nc1ncnc2c1ncn2C1C=CC(COS(N)(=O)=O)C1 (stereo unspecified)
inactive: CCRF-CEM 18.4 µM | HCC 2998 35.7 µM | HL-60 4.19 µM | HOP-92 15.7 µM | HT-29 14.9 µM | IGROV-1 34.2 µM | MDA-MB-231 20.2 µM | MOLT-4 7.85 µM | NCI-H226 55.1 µM | PC-3 12 µM | RPMI-8226 2.93 µM | RXF 393 12.4 µM | SF-295 40.9 µM | SK-MEL-5 30.4 µM | SK-OV-3 52.7 µM | SN12C 8.2 µM | SR 8.55 µM | U-251 5.26 µM | UACC-257 63.5 µM | UO-31 79.1 µM

OCc1ccccc1O[C@H]1O[C@H](CO)[C@@H](O)[C@H](O)[C@H]1O
inactive: CCRF-CEM > 100 µM | HCC 2998 > 100 µM | HL-60 > 100 µM | HOP-92 > 100 µM | HT-29 > 100 µM | IGROV-1 > 100 µM | MDA-MB-231 > 100 µM | MOLT-4 > 100 µM | NCI-H226 > 100 µM | PC-3 > 100 µM | RPMI-8226 > 100 µM | RXF 393 > 100 µM | SF-295 > 100 µM | SK-MEL-5 > 100 µM | SK-OV-3 > 100 µM | SN12C > 100 µM | SR > 10 µM | U-251 > 100 µM | UACC-257 > 100 µM | UO-31 > 100 µM

Cc1c(C(=O)c2ccc(N)c3ccccc23)c2ccccc2n1CCN1CCOCC1
inactive: CCRF-CEM 2.9 µM | HCC 2998 21.1 µM | HL-60 22.3 µM | HOP-92 21.9 µM | HT-29 22.4 µM | IGROV-1 27.1 µM | MDA-MB-231 12.6 µM | MOLT-4 12 µM | NCI-H226 32.1 µM | PC-3 27.5 µM | RPMI-8226 23.6 µM | RXF 393 24.2 µM | SF-295 3.15 µM | SK-MEL-5 15.5 µM | SK-OV-3 1.97 µM | SN12C 33.8 µM | SR > 32.8 µM | U-251 2.77 µM | UACC-257 17.3 µM | UO-31 25.5 µM

COc1cc(OC)cc(Oc2nc3ccccc3nc2C(=O)O)c1
inactive: CCRF-CEM > 100 µM | HCC 2998 > 100 µM | HL-60 > 100 µM | HOP-92 > 100 µM | HT-29 > 100 µM | IGROV-1 > 100 µM | MDA-MB-231 > 100 µM | MOLT-4 > 100 µM | NCI-H226 > 100 µM | PC-3 > 100 µM | RPMI-8226 > 100 µM | RXF 393 > 100 µM | SF-295 > 100 µM | SK-MEL-5 > 100 µM | SK-OV-3 > 100 µM | SR > 100 µM | U-251 > 100 µM | UACC-257 > 100 µM | UO-31 > 100 µM

O=C(Nc1nc(C23CC4CC(CC(C4)C2)C3)cs1)c1c(O)c2ccccc2[nH]c1=O
inactive: CCRF-CEM > 100 µM | HCC 2998 > 100 µM | HL-60 > 100 µM | HOP-92 > 100 µM | HT-29 > 100 µM | IGROV-1 > 100 µM | MDA-MB-231 78.9 µM | MOLT-4 > 100 µM | NCI-H226 > 100 µM | PC-3 > 100 µM | RPMI-8226 > 100 µM | RXF 393 53.6 µM | SF-295 > 100 µM | SK-MEL-5 > 100 µM | SN12C > 100 µM | SR > 100 µM | U-251 > 100 µM | UACC-257 > 100 µM | UO-31 > 100 µM

CCC1c2[nH]c3ccccc3c2C[C@H]2C(=O)NC(Cc3ccccc3)C(=O)N12 (stereo partly specified)
inactive: HCC 2998 26 µM | HL-60 20.7 µM | HOP-92 34.2 µM | HT-29 23.5 µM | IGROV-1 28.8 µM | MDA-MB-231 21 µM | MOLT-4 21.4 µM | NCI-H226 28.4 µM | PC-3 20.8 µM | RPMI-8226 20.2 µM | RXF 393 22.1 µM | SF-295 24.4 µM | SK-MEL-5 19.9 µM | SK-OV-3 44.7 µM | SN12C 28.5 µM | SR 21.2 µM | U-251 22.8 µM | UACC-257 18 µM | UO-31 30.8 µM
